Test results taken from US6720346B2, “Thiazole benzamide derivatives and pharmaceutical compositions for inhibiting cell proliferation” (Agouron Pharmaceuticals, Inc., priority 2001, dated 2004).
Counter-ions that a name gives are not always drawn.

How the values were obtained:
CDK2/cyclin A = molecular target: T1, CDK2/cyclin A (Homo sapiens, UniProt P24941); experiment: Inhibition of CDK2/cyclin A retinoblastoma kinase activity (Ki; % inhibition); type: biochemical; details: for Ki: apparent Ki, CDK2/cyclin A, Rb substrate
T1 construct: made in house; host or cells: CDK2: insect cells (baculovirus); cyclin A: E. coli
Description: (§1) Cyclin-dependent kinase activity was measured by quantifying the enzyme-catalyzed, time-dependent incorporation of radioactive phosphate from [^32P]ATP or [^33P]ATP into a protein substrate. Unless noted otherwise, assays were performed in 96-well plates in a total volume of 50 μL, in the presence of 10 mM HEPES (N-[2-hydroxyethyl]piperazine-N′-[2-ethanesulfonic acid]) (pH 7.4), 10 mM MgCl2, 25 μM adenosine triphosphate (ATP), 1 mg/mL ovalbumin, 5 μg/mL leupeptin, 1 mM dithiothreitol, 10 mM β-glycerophosphate, 0.1 mM sodium vanadate, 1 mM sodium fluoride, 2.5 mM ethylene glycol-bis(β-aminoethyl ether)-N,N,N′N′-tetraacetic acid (EGTA), 2% (v/v) dimethylsulfoxide, and 0.03-0.4 μCi [^32/33P]ATP per reaction. Reactions were initiated with enzyme, incubated at 30° C., and terminated after 20 minutes by the addition of ethylenediaminetetraacetic acid (EDTA) to 250 mM. The phosphorylated substrate was then captured on a nitrocellulose or phosphocellulose membrane using a 96-well filtration manifold, and unincorporated radioactivity was removed by repeated washing with 0.85% phosphoric acid. Radioactivity was quantified by exposing the dried membranes to a phosphorimager.
(§2) Compounds from combinatorial libraries were screened from 96-well plates for % inhibition of CDK activity at 30 nM theoretical compound concentration. Inhibition was measured relative to control wells that contained all reaction components including 2% (v/v) DMSO but no compound, after subtraction of background radioactivity measured in the absence of enzyme. Apparent Ki values of discrete compounds were measured by assaying enzyme activity in the presence of different inhibitor compound concentrations and subtracting the background radioactivity measured in the absence of enzyme. The kinetic parameters (kcat, Km for ATP) were measured for each enzyme under the usual assay conditions by determining the dependence of initial rates on ATP concentration. Inhibition data were fit to an equation for competitive inhibition using Kaleidagraph (Synergy Software), or were fit to an equation for competitive tight-binding inhibition using the software KineTic (BioKin, Ltd.).
CDK2 was purified using published methodology (Rosenblatt et al., “Purification and Crystallization of Human Cyclin-dependent Kinase 2,” J. Mol. Biol., 230, 1993, pp. 1317-1319) from insect cells that had been infected with a baculovirus expression vector. […] A complex of CDK2 and proteolyzed cyclin A was prepared and purified by gel filtration. The substrate for this assay was the same Rb substrate fragment used for the CDK4 assays, and the methodology of the CDK2/delta cyclin A and the CDK4/delta cyclin D3 assays was essentially the same, except that CDK2 was present at 10 nM or 19 nM. The duration of the assay was 60 or 75 minutes, during which the time-dependence of product formation was linear and initial rate conditions were met.

human CDK4/cyclin D3 = molecular target: T2, human CDK4/cyclin D3 (Homo sapiens, UniProt P11802); experiment: Inhibition of CDK4/cyclin D retinoblastoma kinase activity (Ki; % inhibition); type: biochemical; details: for Ki: apparent Ki, CDK4/cyclin D3, Rb substrate
T2 construct: made in house; host or cells: insect cells co-infected with baculovirus vectors
T2 sequence (P11802 whole entry): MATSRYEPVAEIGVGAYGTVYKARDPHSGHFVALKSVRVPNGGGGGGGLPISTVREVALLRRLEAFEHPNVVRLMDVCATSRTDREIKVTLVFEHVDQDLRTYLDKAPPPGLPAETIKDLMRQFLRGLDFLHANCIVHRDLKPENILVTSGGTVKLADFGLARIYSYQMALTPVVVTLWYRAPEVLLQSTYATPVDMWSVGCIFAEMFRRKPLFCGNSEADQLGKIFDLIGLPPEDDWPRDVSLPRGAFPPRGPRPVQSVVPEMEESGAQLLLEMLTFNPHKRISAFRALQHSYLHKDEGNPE
T2 sequence (P30281 1-264 partner limits assumed): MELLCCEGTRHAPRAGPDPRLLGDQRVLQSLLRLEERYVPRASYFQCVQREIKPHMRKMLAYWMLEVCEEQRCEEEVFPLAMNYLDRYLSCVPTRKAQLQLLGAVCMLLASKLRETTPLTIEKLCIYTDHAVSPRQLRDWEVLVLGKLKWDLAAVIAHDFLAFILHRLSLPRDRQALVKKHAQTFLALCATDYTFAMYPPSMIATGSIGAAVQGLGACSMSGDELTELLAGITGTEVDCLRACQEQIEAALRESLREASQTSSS
Description: as §1, §2
A complex of human CDK4 and genetically truncated (1-264) cyclin D3 was purified using traditional biochemical chromatographic techniques from insect cells that had been co-infected with the corresponding baculovirus expression vectors (see e.g., Meijer and Kim, “Chemical Inhibitors of Cyclin-Dependent Kinases,” Methods in Enzymol., 283 (1997), pp. 113-128.). The enzyme complex (5 nM) was assayed with 0.3-0.5 μg of purified recombinant retinoblastoma protein fragment (Rb) as a substrate. The engineered Rb fragment (residues 386-928 of the native retinoblastoma protein; 62.3 kDa) contains the majority of the phosphorylation sites found in the native 106-kDa protein, as well as a tag of six histidine residues for ease of purification. Phosphorylated Rb substrate was captured by microfiltration on a nitrocellulose membrane and quantified using a phosphorimager as described above. For measurement of tight-binding inhibitors, the assay duration was extended to 60 minutes, during which the time-dependence of product formation was linear and initial rate conditions were met.

HCT-116 cell line = experiment: Inhibition of cell growth, MTT tetrazolium salt assay; type: cell-based; details: for IC50: Homo sapiens, HCT-116, 120 h, MTT, three to five days
Description: Inhibition of cell growth was measured using the tetrazolium salt assay, which is based on the ability of viable cells to reduce 3-(4,5-dimethylthiazol-2-yl)-2,5-[2H]-diphenyltetrazolium bromide (MTT) to formazan (Mossman, Journal of Immunological Methods, 65, (1983), pp. 55-58). The water-insoluble purple formazan product was then detected spectrophotometrically. The HCT-116 cell line was used as a representative cancer cell line and grown in 96-well plates. Cells were plated in McCoy's 5A Medium at a volume of 135 μl/well. Plates were incubated for four hours before addition of inhibitor compounds. Different concentrations of inhibitor compounds were added in 0.5% (v/v) dimethylsulfoxide (15 μL/well), and cells were incubated at 37° C. (5% CO2) for three to five days. At the end of the incubation, MTT was added to a final concentration of 0.2 mg/mL, and cells were incubated for 4 hours more at 37° C. After centrifugation of the plates and removal of medium, the absorbance of the formazan (solubilized in dimethylsulfoxide) was measured at 540 nm. The concentration of inhibitor compound causing 50% (IC50) or 90% ([…]) inhibition of growth was determined from the linear portion of a semi-log plot of inhibitor concentration versus percent inhibition. All results were compared to control cells treated only with 0.5% (v/v) dimethylsulfoxide.

[1] = HCT-116 cells, 0.25 μM compound

SMILES | CDK2 % Inhibition at 0.03 μM (CDK2/cyclin A; 0.03 μM compound) | CDK4 % Inhibition at 0.03 μM (human CDK4/cyclin D3; 0.03 μM compound) | HCT-116 % Inhibition at 0.1 μM (HCT-116 cell line; HCT-116 cells, 0.1 μM compound) | HCT-116 % Inhibition at 0.25 μM (HCT-116 cell line; [1]) | further results
CN(CCCNC(=O)c1ccc(Nc2nc(N)c(C(=O)c3c(F)cccc3F)s2)cc1)c1ccccc1 [Example G363] | 27% | 16% | 24% | 63% | –
CCCCN(CCCCO)C(=O)c1ccc(Nc2nc(N)c(C(=O)c3c(F)cccc3F)s2)cc1 [Example G340] | −12% | 9% | 28% | 40% | –
CC(CCCC(C)(C)O)NC(=O)c1ccc(Nc2nc(N)c(C(=O)c3c(F)cccc3F)s2)cc1 (stereo not shown) [Example G237] | 9% | 12% | 20% | 49% | –
Nc1nc(Nc2ccc(C(=O)Nc3ccc(S(N)(=O)=O)cc3)cc2)sc1C(=O)c1c(F)cccc1F [Example G82] | – | – | – | – | CDK2 % Inhibition at 0.03 μM (CDK2/cyclin A; at 0.03 μM): 24%; CDK4 % Inhibition at 0.03 μM (human CDK4/cyclin D3; at 0.03 μM): 15%; HCT-116 % Inhibition at 0.25 μM (HCT-116 cell line; HCT-116, at 0.25 μM): 48%
C[C@@H](NC(=O)c1ccc(Nc2nc(N)c(C(=O)c3c(F)cccc3F)s2)cc1)C(=O)O [Example A65] | – | – | – | – | Ki (CDK2/cyclin A): 160 nM; Ki (human CDK4/cyclin D3): 57 nM; IC50 (HCT-116 cell line): > 500 nM
C[C@H](CN(C)C)NC(=O)c1ccc(Nc2nc(N)c(C(=O)c3c(F)cccc3F)s2)cc1 [Example A40, 4-[4-Amino-5-(2,6-difluoro-benzoyl)-thiazol-2-ylamino]-N-(2-dimethylamino-1R-methyl-ethyl)-benzamide Dihydrochloride] | – | – | – | – | Ki (CDK2/cyclin A): 94 nM; Ki (human CDK4/cyclin D3): 9 nM; IC50 (HCT-116 cell line): 40 nM
Nc1nc(Nc2ccc(C(=O)Nc3ccccc3CCO)cc2)sc1C(=O)c1c(F)cccc1F [Example G207] | 15% | 15% | 15% | 66% | –
Nc1nc(Nc2ccc(C(=O)NCCn3ccnc3)cc2)sc1C(=O)c1c(F)cccc1F [Example A55, 4-[4-Amino-5-(2,6-difluoro-benzoyl)-thiazol-2-ylamino]-N-[2-(imidazol-1-yl)-ethyl]-benzamide Dihydrochloride Salt] | – | – | – | – | Ki (CDK2/cyclin A): 56 nM; Ki (human CDK4/cyclin D3): 17 nM; IC50 (HCT-116 cell line): 3200 nM
COC(CN(C)C(=O)c1ccc(Nc2nc(N)c(C(=O)c3c(F)cccc3F)s2)cc1)OC [Example G19] | – | – | – | – | CDK2 % Inhibition at 0.03 μM (CDK2/cyclin A; at 0.03 μM): −7%; CDK4 % Inhibition at 0.03 μM (human CDK4/cyclin D3; at 0.03 μM): 4%; HCT-116 % Inhibition at 0.25 μM (HCT-116 cell line; HCT-116, at 0.25 μM): 43%
CCCCC(CO)NC(=O)c1ccc(Nc2nc(N)c(C(=O)c3c(F)cccc3F)s2)cc1 (stereo not shown) [Example G329] | 10% | 19% | 9% | 56% | –
CCCCC(CC)NC(=O)c1ccc(Nc2nc(N)c(C(=O)c3c(F)cccc3F)s2)cc1 (stereo not shown) [Example G90] | – | – | – | – | CDK2 % Inhibition at 0.03 μM (CDK2/cyclin A; at 0.03 μM): −30%; CDK4 % Inhibition at 0.03 μM (human CDK4/cyclin D3; at 0.03 μM): 2%; HCT-116 % Inhibition at 0.1 μM (HCT-116 cell line; HCT-116, at 0.1 μM): 24%; HCT-116 % Inhibition at 0.25 μM (HCT-116 cell line; HCT-116, at 0.25 μM): 54%
COc1ccccc1NC(=O)c1ccc(Nc2nc(N)c(C(=O)c3c(F)cccc3F)s2)cc1 [Example G23] | – | – | – | – | CDK2 % Inhibition at 0.03 μM (CDK2/cyclin A; at 0.03 μM): 8%; CDK4 % Inhibition at 0.03 μM (human CDK4/cyclin D3; at 0.03 μM): 7%; HCT-116 % Inhibition at 0.25 μM (HCT-116 cell line; HCT-116, at 0.25 μM): 63%
NC(=O)c1ccc(NC(=O)c2ccc(Nc3nc(N)c(C(=O)c4c(F)cccc4F)s3)cc2)cc1 [Example G85] | – | – | – | – | CDK2 % Inhibition at 0.03 μM (CDK2/cyclin A; at 0.03 μM): 7%; CDK4 % Inhibition at 0.03 μM (human CDK4/cyclin D3; at 0.03 μM): 6%; HCT-116 % Inhibition at 0.25 μM (HCT-116 cell line; HCT-116, at 0.25 μM): 56%
Nc1nc(Nc2ccc(C(=O)N3CCSCC3)cc2)sc1C(=O)c1c(F)cccc1F [Example G26] | – | – | – | – | CDK2 % Inhibition at 0.03 μM (CDK2/cyclin A; at 0.03 μM): 3%; CDK4 % Inhibition at 0.03 μM (human CDK4/cyclin D3; at 0.03 μM): 13%; HCT-116 % Inhibition at 0.25 μM (HCT-116 cell line; HCT-116, at 0.25 μM): 53%
CC(=O)Nc1ccc(NC(=O)c2ccc(Nc3nc(N)c(C(=O)c4c(F)cccc4F)s3)cc2)cc1 [Example G66] | – | – | – | – | CDK2 % Inhibition at 0.03 μM (CDK2/cyclin A; at 0.03 μM): 26%; CDK4 % Inhibition at 0.03 μM (human CDK4/cyclin D3; at 0.03 μM): 14%; HCT-116 % Inhibition at 0.25 μM (HCT-116 cell line; HCT-116, at 0.25 μM): 60%
Nc1nc(Nc2ccc(C(=O)Nc3cccnc3)cc2)sc1C(=O)c1c(F)cccc1F [Example A27, 4-[4-Amino-5-(2,6-difluoro-benzoyl)-thiazol-2-ylamino]-N-(pyridin-3-yl)-benzamide] | – | – | – | – | Ki (CDK2/cyclin A): 66 nM; Ki (human CDK4/cyclin D3): 41 nM
CN(C)CCN1C(=O)c2ccc(Nc3nc(N)c(C(=O)c4c(F)cccc4F)s3)cc2C1=O [E, 5-[4-Amino-5-(2,6-difluoro-benzoyl)-thiazol-2-ylamino]-2-(2-dimethylamino-ethyl)-isoindole-1,3-dione] | – | – | – | – | Ki (CDK2/cyclin A): 400 nM; Ki (human CDK4/cyclin D3): 240 nM
CN(C)CCNC(=O)c1ccc(Nc2nc(N)c(C(=O)C34CC5CC(CC(C5)C3)C4)s2)cc1 [Example A58, 4-[5-(1-Adamantan-1-yl-methanoyl)-4-amino-thiazol-2-ylamino]-N-(2-dimethylamino-ethyl)-benzamide] | – | – | – | – | Ki (CDK2/cyclin A): 3400 nM; Ki (human CDK4/cyclin D3): 1000 nM
Nc1nc(Nc2ccc(C(=O)NCCOCCO)cc2)sc1C(=O)c1c(Cl)cccc1Cl [Example B5, 4-[4-Amino-5-(2,6-dichloro-benzoyl)-thiazol-2-ylamino]-N-[2-(2-hydroxy-ethoxy)-ethyl]-benzamide] | – | – | – | – | Ki (CDK2/cyclin A): 150 nM; Ki (human CDK4/cyclin D3): 59 nM

The next lines start with results.

CDK2 % Inhibition at 0.03 μM (CDK2/cyclin A; 0.03 μM compound) | CDK4 % Inhibition at 0.03 μM (human CDK4/cyclin D3; 0.03 μM compound) | SMILES | HCT-116 % Inhibition at 0.1 μM (HCT-116 cell line; HCT-116 cells, 0.1 μM compound) | HCT-116 % Inhibition at 0.25 μM (HCT-116 cell line; [1]) | further results
8% | 22% | COc1cc(NC(=O)c2ccc(Nc3nc(N)c(C(=O)c4c(F)cccc4F)s3)cc2)cc(OC)c1OC [Example G295] | 10% | 78% | –
−14% | 17% | CN(C)CCCN1CCN(C(=O)c2ccc(Nc3nc(N)c(C(=O)c4c(F)cccc4F)s3)cc2)CC1 [Example G357] | 17% | 88% | –
8% | 20% | Nc1nc(Nc2ccc(C(=O)Nc3ccc(OC(F)(F)F)cc3)cc2)sc1C(=O)c1c(F)cccc1F [Example G230] | 19% | 52% | –
3% | −3% | Nc1nc(Nc2ccc(C(=O)Nc3ccc(C(F)(F)F)cc3)cc2)sc1C(=O)c1c(F)cccc1F [Example G368] | 25% | 50% | –
35% | 39% | COc1cc(CNC(=O)c2ccc(Nc3nc(N)c(C(=O)c4c(F)cccc4F)s3)cc2)cc(OC)c1OC [Example G234] | 20% | 63% | –
